Source: article PMC12571071, “Preventing neuropathy and improving anticancer chemotherapy with a carbazole-based compound” (Science Advances, 2025)

Tests used:
carbonic anhydrase (CA) = assay: AS-MS binding assay, carbonic anhydrase (negative control); conditions: 10 μM compound, 3 μM carbonic anhydrase
Protocol: (§1) To this end, Carba1 or FK866 (positive control of NAMPT binding) was first incubated with NAMPT or carbonic anhydrase (CA; negative control). Protein-ligand complexes were separated from the unbound compounds by size exclusion chromatography (SEC). To quantify the protein-bound fraction, the complexes were then dissociated using reverse-phase chromatography, and the compounds were analyzed and quantified by mass spectrometry. By comparing the amounts of compound before (preSEC) and after (postSEC) SEC in the presence of CA or NAMPT, we assessed their ability to selectively bind to NAMPT.
(§2) AS-MS was used to assess compound binding to NAMPT. AS-MS was performed by Edelris SAS (www.edelris.com/), which has developed the commercial AS-MS service “EDEN platform,” based on ([71]). Conditions consisted of protein (NAMPT and CA) at 3 μM and compounds (Carba1 and FK866) at 10 μM dissolved in corporate buffer.

adult mouse DRG neurons = assay: Axonal degeneration index in dissociated adult mouse DRG neurons; conditions: 72 h
Protocol: After 4 days in vitro (DIV), at least 30% of medium was changed, and 10 μM AraC (cytosine β-D-arabino furanoside) was added to suppress nonneuronal growth. […] Neurons were fixed with 4% paraformaldehyde (PFA), washed with PBS, permeabilized with PBS–0.01% Triton X-100 for 15 min, and blocked with PBS–10% FBS for 1 hour before being stained overnight at 4°C with neurofilament antibody. Following PBS washes, secondary antibody (goat anti-chicken Alexa Fluor 488) was applied for 2 hours at room temperature (R.T.). Following additional PBS washes, coverslips were mounted with Fluoromount-G.
Images of random fields of dissociated adult DRG neurons, immunostained with antineurofilament or anti-TUBB3 antibodies, were captured using a 20× objective lens (Olympus IX81) and a Sensicam QE monochrome camera (Cooke Corporation). Degeneration masks were generated on the basis of the method described by Gerdts et al. ([66]). Axonal degeneration was quantified by measuring the total axonal area and fragmented axonal area in the same field, using degeneration masks as shown in fig. […] Images were processed in Fiji using global autothresholding, binarization, and the particle analyzer module to detect fragments (20 to 10,000 pixels), as previously described ([17]). The degeneration index was calculated as the ratio of fragmented axonal area to total axonal area.

NAMPT = NAMPT (Homo sapiens, UniProt P43490); assay: AS-MS binding assay, NAMPT; conditions: 10 μM compound, 3 μM NAMPT
Protocol: as §1, with “spectrometry.” for “spectrometry. By comparing the amounts of compound before (preSEC) and after (postSEC) SEC in the presence of CA or NAMPT, we assessed their ability to selectively bind to NAMPT.”
as §2

[1] = system: HeLa cells xenografted in mice; assay: HeLa tumor xenograft in nude mice; type: in vivo; conditions: PTX 8 mg/kg
Protocol: Five-week-old NMRI nude mice (Janvier Labs) were implanted with 10 × 10^6 HeLa cells (200 μl in PBS) on the right flank. On day 6, the mean tumor volume was 120 ± 4 mm^3. […] Behavior and signs of pain were monitored daily. Body weight and tumor volume were measured two to three times per week using electronic calipers, with tumor volume (in cubic millimeters) calculated as length (millimeters)/2 × width^2 (square millimeters). Tumor growth inhibition was analyzed using GraphPad Prism with one-way analysis of variance (ANOVA) and Dunn’s multiple comparisons test for treatment versus vehicle. Mice were euthanized on day 20, when the vehicle group reached ethical limits. Blood samples were collected by intracardiac puncture in EDTA-coated tubes for differential blood counts and hemograms, outsourced to IDEXX BioAnalytics. For biochemical analysis, blood was collected in heparin-lithium tubes, and plasma was isolated by centrifugation and frozen at −80°C. Plasma was analyzed using MS Scan II (Melet Schloesing) and VET16 reagent rotors to measure markers of renal and hepatic function, metabolism, and nutritional and muscular status. Differential counts, hemograms, and biochemical data were analyzed with GraphPad Prism using Kruskal-Wallis test and Dunn’s multiple comparisons test.

Chain of NAMPT (P43490 whole entry, species assumed): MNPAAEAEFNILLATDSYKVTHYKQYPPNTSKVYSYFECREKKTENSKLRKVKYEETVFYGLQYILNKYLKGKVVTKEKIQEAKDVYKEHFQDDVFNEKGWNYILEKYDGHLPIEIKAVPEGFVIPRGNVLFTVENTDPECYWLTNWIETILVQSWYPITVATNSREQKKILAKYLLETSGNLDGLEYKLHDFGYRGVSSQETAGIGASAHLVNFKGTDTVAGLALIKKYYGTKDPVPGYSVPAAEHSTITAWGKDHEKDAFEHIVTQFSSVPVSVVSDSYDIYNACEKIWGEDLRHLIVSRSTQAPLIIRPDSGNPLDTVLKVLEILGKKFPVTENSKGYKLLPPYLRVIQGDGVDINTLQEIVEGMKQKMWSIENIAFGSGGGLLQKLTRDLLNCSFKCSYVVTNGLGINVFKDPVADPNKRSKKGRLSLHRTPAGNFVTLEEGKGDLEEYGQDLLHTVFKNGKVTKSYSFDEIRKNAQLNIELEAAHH

SMILES: Cc1cc(-n2cccc2)c(C)c2c1[nH]c1ccc(Cl)cc12 [Compound 1]
- binding to CA (AS-MS) (carbonic anhydrase (CA)): neither FK866 nor Carba1 was found to bind CA
- protection against PTX-induced axonal degeneration (adult mouse DRG neurons; 12 μM Carba1 cotreatment with 50 nM PTX): prevented neuronal degeneration
- protection against Bort-induced neuronal fragmentation (adult mouse DRG neurons; 12 μM Carba1 cotreatment with 100 nM Bort): prevent neuronal fragmentation
- protection against Cis-induced neuronal fragmentation (adult mouse DRG neurons; 12 μM Carba1 cotreatment with 10 μM Cis): prevent neuronal fragmentation
- axonal fragmentation / degeneration, agent alone (adult mouse DRG neurons; DIV 12 neurons, Carba1 12 μM, PTX 50 nM, Cis 10 μM, Bort 100 nM): did not show significant effects on neurite fragmentation
- binding to NAMPT (AS-MS) (NAMPT): directly binds to NAMPT
- tumor size ([1]; i.v. every 2 days, Carba1 60 mg/kg alone or with PTX): no significant tumor size changes
- toxicity (blood counts, markers of renal or hepatic function) ([1]; i.v., Carba1 60 mg/kg, or combination): no detectable toxicity
